# Assay results as given in patent US10653680B2, “Treatment of impulsivity-related disorders” (OXFORD UNIVERSITY INNOVATION LIMITED, priority 2016, dated 2020).
# Assays:
# healthy participants = test: Cambridge Gambling Task (CGT); format: in vivo, human
# Procedure: Twenty healthy participants (7 females, 13 males; mean age 25.1 years, range 20-38 years; mean BMI 22.7 kg/m^2, range 18.7-30.0 kg/m^2) were included in the study after giving full informed written consent.
# Ebselen capsules and identical matching placebo (containing microcrystalline cellulose) were purchased from Shasun Pharmaceuticals Ltd. Participants were tested twice (seven days apart) receiving on one occasion ebselen and, on the other, placebo in a randomised, double-blind, cross-over design. Ebselen was administered in 6×200 mg capsules in three doses given over two days. The order of receiving either the ebselen or the placebo was randomised.
# On the day before cognitive testing, participants took the first dose at 1 pm and the second dose at 10 pm. The final dose was taken around 3 hrs prior to cognitive testing. Participants were sent text message reminders a few minutes before they were due to take medication, and were asked to confirm receipt of the messages. The cognitive tasks were carried out immediately after a magnetic resonance spectroscopy study.
# The Cambridge Gambling Task (CGT) from the Cambridge Neuropsychological Test Automated Battery (CANTAB, version 3.0.0, Cambridge Cognition Ltd., Cambridge, UK) (Rogers et al.; Neuropsychopharmacology, 1999, 20, 322-333; Clark et al.; Brain, 2008, 131, 1311-1322) assesses decision-making and risk-taking behaviour outside a learning context. In each trial, participants are shown ten boxes at the top of the screen, with some boxes being red and some being blue. The ratio of red to blue boxes varies from 9:1; 8:2; 7:3; 6:4; 5:5 and vice versa in a pseudo-random order.
# Participants are informed that a yellow token is hidden inside one of the boxes and asked to indicate the colour box in which the token is most likely to be hidden, by pressing the colour (RED or BLUE) in a response panel at the bottom of the screen. Following their response, the participants indicate confidence in their selection by betting a proportion of points they are allocated (starting with 100 points). […] On each trial five bets are offered, and each bet represents a fixed percentage of the current total points score (5, 25, 50, 75 and 95%). Possible bets are presented sequentially in a box on the right of the display and participants touch the box to select the bet. If correct, the bet value is added to their total points on the left of the panel, and if incorrect, it is subtracted from the total points.
# Participants are asked to accumulate as many points as possible. […] Participants perform the task in four blocks of two separate conditions, ascending and descending bet value (the condition order is counterbalanced across participants). In the ascending condition, bets increase at 2.5 s time intervals from 5% to 95% until participants make their selection. This means that if a participant bets at the first value presented, then they bet only 5% of their total points, and if they wait for the highest value, they bet 95% of their total points. In the descending condition bets start from 95% and decrease to 5%. Low bets in the ascend condition and high bets in the descend condition reveal an impulsive betting strategy, while high bets in both conditions reveal a risk taking or reward seeking strategy.
# From the first stage of the task (selecting the likely colour of the box in which the token is hidden), the outcome measures are deliberation time and quality of decision making. Deliberation time is the mean latency from presentation of coloured boxes to participant selection. Quality of decision making refers to the proportion of trials on which the more likely outcome is chosen. From the gamble stage, the outcome measures are risk taking, risk adjustment and delay aversion. Risk taking refers to the mean proportion of current points that the subject stakes on each gamble when the more likely outcome is selected, and can be regarded as an index of reward seeking or loss aversion. […]
# rats = test: 5-CSRTT, stimulant (cocaine)-induced responding; format: in vivo, rats (males; Long Evans)
# Procedure: Testing was carried out in Vancouver (Canada) using rats (males; Long Evans from Charles River) which were given at least two weeks to acclimatise to the animal facility. They were housed in pairs on a 12 hour reverse light-dark cycle (lights off at 7 am). In the second week of acclimatisation, rats were handled briefly each day. […] For each task, there was then a habituation session to the operant boxes before training began.
# Ebselen, cocaine and 2,5-dimethoxy-4-iodoamphetamine (DOI) were obtained from Sigma Aldrich, and MDL 100,907 was obtained from Tocris. Ebselen was dissolved in 0.5M DMSO and made up to injection volume (8 ml/kg) using 4% cyclodextrin. Cocaine and DOI were dissolved in 0.9% saline. MDL 100,907 was dissolved in 0.9% saline and the pH was adjusted to 6.25 using 1M NaOH and 0.1M HCl.
# All data for the cognitive tasks are presented as mean+SEM change from baseline: • performance on drug day−performance on the previous day
# In experiments investigating the effect of ebselen on cocaine and DOI, data were analysed with a two-way ANOVA with ebselen and cocaine/DOI as between-subject factors. If an interaction was detected, this was further investigated using simple main effects analysis. All analyses were conducted using SPSS 22 with p<0.05 considered significant.
# To assess the effect of ebselen on stimulant-induced responding, ebselen (10 mg/kg) or vehicle was administered 1 hour prior to cocaine (15 mg/kg i.p.), which in turn was administered 10 minutes prior to testing. Treatments were administered using according to a Latin square design. The inter-trial interval for these sessions was 5 seconds. Two rats were excluded from the data due to increasing levels of omissions across all days of this portion of the study. The experiment was repeated using 0.03 mg/kg MDL 100,907 instead of ebselen.
smiles,measurement,setting,value
"O=c1c2ccccc2[se]n1-c1ccccc1 [Ebselen, 2-phenyl-1,2-benzisoselenazol-3(2H)-one]",effect on deliberation time,healthy participants; ebselen vs placebo,no significant effects
same,effect on quality of decision making,healthy participants; ebselen vs placebo,no significant effects
same,effect on reward seeking/risk taking,healthy participants; ebselen vs placebo,increase
same,effect on risk adjustment,healthy participants; ebselen vs placebo,no significant effects
same,effect on delay aversion,"healthy participants; ebselen vs placebo, irrespective of probability of favourable outcome and token ratio",significant decrease
same,"Delay aversion (%), Mean ± SEM","healthy participants; human, ebselen 6x200 mg in three doses over two days, final dose around 3 hrs before testing, vs placebo p = 0.010",9.0 ± 2.14%
same,"Reward seeking (%), Mean ± SEM","healthy participants; human, same regimen, vs placebo p = 0.046",63.9 ± 1.45%
same,"Risk adjustment, Mean ± SEM","healthy participants; human, same regimen, vs placebo p = 0.107",2.1 ± 0.18
same,"Deliberation time (ms), Mean ± SEM","healthy participants; human, same regimen, vs placebo p = 0.131",1408 ± 78 ms
same,"Quality of decision making (%), Mean ± SEM","healthy participants; human, same regimen, vs placebo p = 0.155",99.3 ± 0.3%
same,any other measure,rats; ebselen 10 mg/kg / cocaine 15 mg/kg experiment,No effects
same,reversal of the cocaine effect on omissions,"rats; ebselen 10 mg/kg before cocaine 15 mg/kg, p=0.463",not reversed
same,reversal of the cocaine effect on accuracy,"rats; ebselen 10 mg/kg before cocaine 15 mg/kg, p=0.969, interaction p=0.278",not reversed
same,cocaine-induced premature responses,"rats; ebselen 10 mg/kg i.p. 1 hour prior to cocaine 15 mg/kg i.p., p=0.023",reduced cocaine-induced premature responses
same,"number of premature responses, ebselen/cocaine vs vehicle/vehicle treatment","rats; ebselen 10 mg/kg, cocaine 15 mg/kg i.p., p=0.909",did not differ
